Patent US6288230A, “2-(2, 3-dihydrobenzofuran-5-yl)-4-aminomethylimidazoles: dopamine receptor subtype specific ligands” (Neurogen Corporation, priority 1999, dated 2001)
Structures can show the parent of a compound that is named as a salt.

Experiments:
[1] = test system: D4 receptor; test: D4 receptor binding (displacement of 3H-YM 09151-2, COS cells with recombinant receptor); set-up: species or system African Green monkey; conditions: 0.5 nM 3H-YM 09151-2; nonspecific binding with 1 mM spiperone
Experimental: Pellets of COS cells containing recombinantly produced D2 or D4 receptors from African Green monkey are used for the assays. The sample is homogenized in 100 volumes (w/vol) of 0.05 M Tris HCl buffer at […] and pH 7.4. The sample is then centrifuged at 30,000×g and resuspended and rehomogenized. The sample is then centrifuged again at 30,000×g and the final tissue sample is frozen until use. The tissue is resuspended 1:20 (wt/vol) in 0.05 M Tris HCl buffer containing 100 mM NaCl.

[2] = target: D2 receptor (Chlorocebus aethiops, UniProt P52702); test: D2 receptor binding (displacement of 3H-YM 09151-2, COS cells with recombinant receptor); set-up: species or system African Green monkey; conditions: 0.5 nM 3H-YM 09151-2; nonspecific binding with 1 mM spiperone
Sequence of D2 receptor (P52702 whole entry): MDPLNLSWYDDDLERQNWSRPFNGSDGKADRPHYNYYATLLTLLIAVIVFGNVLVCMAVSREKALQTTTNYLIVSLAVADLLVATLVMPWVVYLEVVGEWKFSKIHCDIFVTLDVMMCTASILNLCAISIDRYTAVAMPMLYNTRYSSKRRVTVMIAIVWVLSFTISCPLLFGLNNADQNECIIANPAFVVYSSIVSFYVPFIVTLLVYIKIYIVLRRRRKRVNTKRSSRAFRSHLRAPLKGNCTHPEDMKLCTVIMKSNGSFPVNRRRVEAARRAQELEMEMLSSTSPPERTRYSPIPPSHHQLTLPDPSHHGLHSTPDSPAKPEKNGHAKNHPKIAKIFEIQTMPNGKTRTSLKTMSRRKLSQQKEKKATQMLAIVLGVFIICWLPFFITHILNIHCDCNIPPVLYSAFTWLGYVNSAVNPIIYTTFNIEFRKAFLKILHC

Ki [2] | SMILES | Ki [1]
143 nM | COc1ccccc1N1CCN(Cc2c[nH]c(-c3ccc4c(c3)CCO4)n2)CC1 [Compound 1, 2-(2,3-Dihydrobenzofuran-5-yl)-4-(1-[4-{2-methoxyphenyl}piperazin-1-yl]methyl)imidazole] | 3 nM
716 nM | Cc1cnc(N2CCN(Cc3cnc(-c4ccc5c(c4)CCO5)[nH]3)CC2)nc1 [Compound 3a, 5-(5-{[4-(5-methylpyrimidin-2-yl)piperazinyl]-methyl}imidazol-2-yl)-2,3-dihydrobenzo[b]furan] | –
1130 nM | c1ccc2nc(N3CCN(Cc4cnc(-c5ccc6c(c5)CCO6)[nH]4)CC3)ncc2c1 [Compound 7, 2-(2,3-Dihydrobenzofuran-5-yl)-4-(1-[4-{4,5-benzopyrimidin-2-yl}piperazin-1-yl]methyl)imidazole hydrochloride] | 32 nM
125 nM | c1ccc2c(N3CCN(Cc4c[nH]c(-c5ccc6c(c5)CCO6)n4)CC3)nccc2c1 [Compound 8, 2-(2,3-Dihydrobenzofuran-5-yl)-4-(1-[4-{isoquinolin-1-yl}piperazin-1-yl]methyl)imidazole] | 1 nM

SMILES | Ki [2] | Ki [1]
c1ccc(CC2CCN(Cc3c[nH]c(-c4ccc5c(c4)CCO5)n3)CC2)cc1 [Compound 6, 2-(2,3-Dihydrobenzofuran-5-yl)-4-(1-[4-benzylpiperidin-1-yl]methyl)imidazole hydrochloride] | 650 nM | 3 nM
